In brackets after ≈: the same amount, converted by molar mass.
What was measured:
[1] = test system: A. baumannii strain 5075 (AB5075); experiment: Macrolide sensitization / antibiotic resensitization: antibiotic MIC in presence of compound (broth microdilution); assay type: cell-based, Acinetobacter baumannii; details: Acinetobacter baumannii, read-out: MIC (μg/mL) of the antibiotic
Procedure: A. baumannii 5075 was plated on LB agar, then grown in CAMHB for 6-8 h and this culture was used to inoculate fresh CAMHB (5×10^5 CFU/mL). The resulting suspension was aliquoted (5 mL) into culture tubes and compound, from 100 mM DMSO stock, was added. One aliquot was not treated (control). 1 mL of each sample was transferred to a new culture tube and antibiotic was added. Rows 2-12 of a 96-well microtiter plate were filled with 100 μL/well from the remaining 4 mL bacterial subcultures, allowing the concentration of compound to be kept uniform throughout the antibiotic dilution procedure. Samples containing antibiotic were aliquoted (200 μL) into the corresponding first row wells of the microtiter plate. Row 1 wells were mixed 6 to 8 times then 100 μL was withdrawn and transferred to row 2. Row 2 wells were mixed 6 to 8 times, followed by a 100 μL transfer from row 2 to row 3. This procedure was repeated to serially dilute the rest of the rows of the microtiter plate, with the exception of the final row, to which no antibiotic was added (to check for growth of bacteria in the presence of compound alone). The microtiter plate was then covered, placed in a covered damp plastic container and incubated under stationary conditions at 37° C. After 16-18 hrs minimum inhibitory concentration (MIC) values were recorded as the lowest concentration of antibiotic at which there was no visible growth of bacteria. Experiments were carried out in duplicate each time and repeated at least twice.
The difference in antibiotic MIC between the control (no compound) sample, and the samples containing each compound was recorded as the fold-reduction.
(§1) Day Cultures (6 h) were subcultured to 5×10^5 CFU/mL in cation adjusted Mueller-Hinton broth (CAMHB). […] One milliliter of the resulting solution was aliquoted into a separate culture tube and was dosed with antibiotic so that the resulting concentration was the highest desirable concentration to be tested. Bacteria treated with antibiotic alone were used as a control. Row one of a 96-well plate was filled with 200 μL of the antibiotic/compound solution, and the remaining rows were filled with 100 μL of the remaining 4 mL bacterial subculture. The wells in row one were mixed five times before 100 μL was transferred to the following row (row two). Row two was then mixed five times, and 100 μL was transferred to row three. This process was repeated until the second to last row had been reached. The last row is left unexposed to antibiotic in order to serve as a negative control. The antibiotic only treated bacteria was plated by aliquoting 200 μL of the treated bacteria into row one and filling the remaining rows with untreated bacteria from the original bacteria subculture. The rows were mixed in the same way as described above. Plates were covered with Glad Press n'Seal and were incubated under stationary conditions at 37° C. for 16 hours. MIC values were recorded as the lowest concentration at which no bacterial growth was observed. Fold reductions were determined by comparison of the compound treated wells with the antibiotic only treated control wells.

[2] = test system: A. baumannii mutant AB522; experiment: MIC against Tn-seq transposon mutant AB522; assay type: cell-based; details: Acinetobacter baumannii
Procedure: (§2) During individual MIC screening, two mutants, AB522 and AB1310, were identified due to their increased sensitivity to the three macrolide antibiotics and vancomycin when compared to AB 5075 (Table 17).
(§3) Day Cultures (6 h) were subcultured to 5×10^5 CFU/mL in cation adjusted Mueller-Hinton broth (CAMHB). Aliquots (1 mL) were placed in culture tubes, and compound was added from 100 mM stock solutions, such that the compound concentration equaled the highest concentration tested (200 μM or 64 μg/mL). Samples were then aliquoted (200 μL) into the first row of wells of a 96-well plate, with all remaining wells being filled with 100 μL of initial bacterial subculture. The wells in row one were mixed five times before 100 μL was transferred to the following row (row two). Row two was then mixed five times, and 100 μL was transferred to row three. This processed was repeated until the final row had been mixed. This process provided a serial dilution of the compound. Plates were covered with Glad Press n'Seal and were incubated under stationary conditions at 37° C. for 16 hours. MIC values were recorded as the lowest concentration at which no bacterial growth was observed.

[3] = test system: A. baumannii mutant AB1310; experiment: MIC against Tn-seq transposon mutant AB1310; assay type: cell-based; details: Acinetobacter baumannii
Procedure: as §2, §3

[4] = test system: A. baumannii strain 3560; experiment: Potentiation of clarithromycin and vancomycin against clinical isolate; assay type: cell-based, Acinetobacter baumannii; details: antibiotic alone
Procedure: (§4) As previously stated, A. baumannii 5075 was chosen for these studies due to its virulence and multidrug resistance, but to further analyze the activity of our lead compounds, 23 A. baumannii clinical isolates obtained from Walter Reed Army Institute of Research (WRAIR) were tested.
as §1

[5] = test system: A. baumannii strain 3785; experiment: as above; assay type: cell-based, Acinetobacter baumannii; details: antibiotic alone
Procedure: as §4, §1

[6] = test system: A. baumannii strain 3806; experiment: as above; assay type: cell-based, Acinetobacter baumannii; details: antibiotic alone
Procedure: as §4, §1

[7] = test system: A. baumannii strain 3927; experiment: as above; assay type: cell-based, Acinetobacter baumannii; details: antibiotic alone
Procedure: as §4, §1

[8] = test system: A. baumannii strain 4025; experiment: as above; assay type: cell-based, Acinetobacter baumannii; details: antibiotic alone
Procedure: as §4, §1

[9] = test system: A. baumannii strain 4026; experiment: as above; assay type: cell-based, Acinetobacter baumannii; details: antibiotic alone
Procedure: as §4, §1

[10] = test system: A. baumannii strain 4027; experiment: as above; assay type: cell-based, Acinetobacter baumannii; details: antibiotic alone
Procedure: as §4, §1

[11] = test system: A. baumannii strain 4052; experiment: as above; assay type: cell-based, Acinetobacter baumannii; details: antibiotic alone
Procedure: as §4, §1

[12] = test system: A. baumannii strain 4269; experiment: as above; assay type: cell-based, Acinetobacter baumannii; details: antibiotic alone
Procedure: as §4, §1

[13] = test system: A. baumannii strain 4448; experiment: as above; assay type: cell-based, Acinetobacter baumannii; details: antibiotic alone
Procedure: as §4, §1

[14] = test system: A. baumannii strain 4456; experiment: as above; assay type: cell-based, Acinetobacter baumannii; details: antibiotic alone
Procedure: as §4, §1

[15] = test system: A. baumannii strain 4490; experiment: as above; assay type: cell-based, Acinetobacter baumannii; details: antibiotic alone
Procedure: as §4, §1

[16] = test system: A. baumannii strain 4498; experiment: as above; assay type: cell-based, Acinetobacter baumannii; details: antibiotic alone
Procedure: as §4, §1

[17] = test system: A. baumannii strain 4795; experiment: as above; assay type: cell-based, Acinetobacter baumannii; details: antibiotic alone
Procedure: as §4, §1

[18] = test system: A. baumannii strain 4878; experiment: as above; assay type: cell-based, Acinetobacter baumannii; details: antibiotic alone
Procedure: as §4, §1

[19] = test system: A. baumannii strain 4957; experiment: as above; assay type: cell-based, Acinetobacter baumannii; details: antibiotic alone
Procedure: as §4, §1

[20] = test system: A. baumannii strain 4991; experiment: as above; assay type: cell-based, Acinetobacter baumannii; details: antibiotic alone
Procedure: as §4, §1

[21] = test system: A. baumannii strain 5001; experiment: as above; assay type: cell-based, Acinetobacter baumannii; details: antibiotic alone
Procedure: as §4, §1

[22] = test system: A. baumannii strain 5197; experiment: as above; assay type: cell-based, Acinetobacter baumannii; details: antibiotic alone
Procedure: as §4, §1

[23] = test system: A. baumannii strain 5256; experiment: as above; assay type: cell-based, Acinetobacter baumannii; details: antibiotic alone
Procedure: as §4, §1

[24] = test system: A. baumannii strain 5711; experiment: as above; assay type: cell-based, Acinetobacter baumannii; details: antibiotic alone
Procedure: as §4, §1

[25] = test system: A. baumannii strain 8967; experiment: as above; assay type: cell-based, Acinetobacter baumannii; details: antibiotic alone
Procedure: as §4, §1

[26] = test system: AB5075; experiment: G. mellonella model infected with AB5075, survival; assay type: in vivo, Galleria mellonella; details: rifampin at 30 mg/kg, one injection
Procedure: Galleria mellonella larvae (Speedy Worm, Alexandria, Minn.) were used within ten days of shipment from the vendor. After reception of worms, larvae were kept in the dark at room temperature for at least 24 h before infection. Larvae weighing between 200 to 300 mg were used in the survival assay. Using a 10 μL glass syringe (Hamilton, Reno, Nev.) fitted with a 30 G needle (Exel International, St. Petersburg, Fl), 5 μL of the desired compound and concentration were injected into the last left proleg. After 2.5 h, a second 5 μL injection containing 6×10^5 CFU of Acinetobacter baumannii 5075 was injected into the second to last left proleg. Injected worms were left at room temperature in the dark while being assessed at 24 h intervals over 6 days. […] Experiment was repeated 7 times using 10 larvae per experimental group.

## CN[C@H](CC(C)C)C(=O)N[C@H]1C(=O)N[C@@H](CC(N)=O)C(=O)N[C@H]2C(=O)N[C@H]3C(=O)N[C@H](C(=O)N[C@H](C(=O)O)c4cc(O)cc(O)c4-c4cc3ccc4O)[C@H](O)c3ccc(c(Cl)c3)Oc3cc2cc(c3O[C@@H]2O[C@H](CO)[C@@H](O)[C@H](O)[C@H]2O[C@H]2C[C@](C)(N)[C@H](O)[C@H](C)O2)Oc2ccc(cc2Cl)[C@H]1O [Vancomycin, reference compound]
[1]
  MIC: 256 µg/mL
[2]
  MIC: 64 µg/mL (≈ 44.2 µM)
[3]
  MIC: 64 µg/mL (≈ 44.2 µM)
[4]
  MIC (μg/mL) of the antibiotic: 256 µg/mL
[5]
  MIC (μg/mL) of the antibiotic: 512 µg/mL
[6]
  MIC (μg/mL) of the antibiotic: 256 µg/mL
[7]
  MIC (μg/mL) of the antibiotic: 256 µg/mL
[8]
  MIC (μg/mL) of the antibiotic: 512 µg/mL
[9]
  MIC (μg/mL) of the antibiotic: 512 µg/mL
[10]
  MIC (μg/mL) of the antibiotic: 512 µg/mL
[11]
  MIC (μg/mL) of the antibiotic: >512 µg/mL
[12]
  MIC (μg/mL) of the antibiotic: 512 µg/mL
[13]
  MIC (μg/mL) of the antibiotic: 512 µg/mL
[14]
  MIC (μg/mL) of the antibiotic: 512 µg/mL
[15]
  MIC (μg/mL) of the antibiotic: 256 µg/mL
[16]
  MIC (μg/mL) of the antibiotic: 512 µg/mL
[17]
  MIC (μg/mL) of the antibiotic: >512 µg/mL
[18]
  MIC (μg/mL) of the antibiotic: 512 µg/mL
[19]
  MIC (μg/mL) of the antibiotic: 512 µg/mL
[20]
  MIC (μg/mL) of the antibiotic: 512 µg/mL
[21]
  MIC (μg/mL) of the antibiotic: 512 µg/mL
[22]
  MIC (μg/mL) of the antibiotic: 512 µg/mL
[23]
  MIC (μg/mL) of the antibiotic: 512 µg/mL
[24]
  MIC (μg/mL) of the antibiotic: >512 µg/mL
[25]
  MIC (μg/mL) of the antibiotic: 512 µg/mL

## CO[C@H]1/C=C/O[C@@]2(C)Oc3c(C)c(O)c4c(O)c(c(/C=N/N5CCN(C)CC5)c(O)c4c3C2=O)NC(=O)/C(C)=C\C=C\[C@H](C)[C@H](O)[C@@H](C)[C@@H](O)[C@@H](C)[C@H](OC(C)=O)[C@@H]1C [rifampin, reference compound]
[26]
  survival after 6 days: 64%

Reference: patent US20210283107A1, “Methods to Expand the Spectrum of Gram-Positive Antibiotics” (NORTH CAROLINA STATE UNIVERSITY, priority 2016, published 2021)
